# US20240009159A1, “ANTIVIRAL COMPOSITION FOR SARS-COV-2 AND HCOV-OC43 COMPRISING RHEIN, MECLOFENAMIC ACID, OR A COMBINATION THEREOF” (SEOUL NATIONAL UNIVERSITY R&DB FOUNDATION, priority 2020, published 2024)
# Where two headings read alike, the source gives them in different places.
# Key:
# SARS-CoV-2 [1] = format: cell-based; conditions: SARS-CoV-2-infected Vero cells
# HCoV-OC43 [2] = assay: viral RNA level by qRT-PCR in HCoV-OC43-infected Vero cells; format: cell-based, human coronavirus OC43 (HCoV-OC43); conditions: for viral RNA level of N (normalized to GAPDH): control DMSO
# SARS-CoV-2 [3] = format: cell-based; conditions: MA at 50 μM, treated two hours before infection; SARS-CoV-2-infected differentiated HBEC cells, 3.3×10^4 PFU; 48 hours after infection
# SARS-CoV-2 [4] = format: cell-based; conditions: SARS-CoV-2-infected Calu-3 cells
# HCoV-OC43 [5] = assay: viral RNA level by qRT-PCR in HCoV-OC43-infected HCT-8 cells; format: cell-based, human coronavirus OC43 (HCoV-OC43)
# [6] = rhein at 25 μM, MOI 0.05, 24 hours after infection, control DMSO
SMILES,"viral RNA levels of nsp12, M, and N (normalized to GAPDH) compared with the control group (SARS-CoV-2 [1]; MA at 50 μM, control ethanol)","viral RNA level of N (normalized to GAPDH) (HCoV-OC43 [2]; MA at 10 μM, 25 μM, 50 μM, and 100 μM)","viral RNA levels (nsp12, M, and N, normalized to GAPDH) compared with the control group (SARS-CoV-2 [3]) [%]","viral RNA levels of nsp12, M, and N (normalized to GAPDH) compared with the control group (SARS-CoV-2 [4]; MA at 50 μM, control ethanol)","viral RNA level of N (normalized to GAPDH) (HCoV-OC43 [5]; MA at 50 μM, control DMSO and ethanol)","viral RNA levels of nsp12, M, and N (normalized to GAPDH) compared with the control group (SARS-CoV-2 [1]; [6])","dose dependence of inhibition of the RNA level of N (HCoV-OC43 [2]; increasing concentration of rhein (5-50 μM), FIG. 1D)","viral RNA level of N (normalized to GAPDH) (HCoV-OC43 [2]; rhein at 5 μM, 10 μM, 25 μM, and 50 μM, 24 hours after infection)","viral RNA levels of nsp12, M, and N (normalized to GAPDH) compared with the control group (SARS-CoV-2 [4]; [6])","viral RNA level of N (normalized to GAPDH) (HCoV-OC43 [5]; rhein at 250 μM and 25 μM, 24 hours after infection, control DMSO+Ethanol)"
"Cc1ccc(Cl)c(Nc2ccccc2C(=O)O)c1Cl [MA, meclofenamic acid]",less than 5%,significantly inhibited,≤ 40,less than 5%,significantly inhibited,–,–,–,–,–
"O=C(O)c1cc(O)c2c(c1)C(=O)c1cccc(O)c1C2=O [rhein, 4,5-dihydroxy-9,10-dioxoanthracene-2-carboxylic acid]",–,–,–,–,–,less than 30%,dose-dependent effect was confirmed,significantly inhibited,less than 5%,significantly inhibited
